The results in this text go back to patent US9181241B2, “Antagonists of chemokine receptors” (ChemoCentryx, Inc., priority 2012, dated 2015).

The structures appear in SMILES notation. Some results are limits rather than exact numbers.

The first experiment concerns the target T1, CCR1 (Homo sapiens, UniProt P32246).
T1 construct: host or cells: THP-1 cells or isolated human CD14+ monocytes
T1 sequence (P32246 1-355): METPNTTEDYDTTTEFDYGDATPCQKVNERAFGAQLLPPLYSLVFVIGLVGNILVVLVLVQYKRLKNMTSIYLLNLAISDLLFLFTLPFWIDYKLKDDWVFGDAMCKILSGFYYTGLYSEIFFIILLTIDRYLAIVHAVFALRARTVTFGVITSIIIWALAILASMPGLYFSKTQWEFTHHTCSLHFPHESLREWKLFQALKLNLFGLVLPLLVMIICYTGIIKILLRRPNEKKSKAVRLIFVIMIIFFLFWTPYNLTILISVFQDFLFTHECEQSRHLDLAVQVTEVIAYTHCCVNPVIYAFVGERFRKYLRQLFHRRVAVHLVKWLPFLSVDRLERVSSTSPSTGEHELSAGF
Put plainly: Chemotaxis assay (CTX): inhibition of CCR1 mediated migration of THP-1 or monocyte cells. Type of experiment: cell-based. As to conditions: class symbols; activity for either the chemotaxis assay or binding assay. As for the experimental part:
THP-1 cells were obtained from ATCC (TIB-202) and cultured as a suspension in RPMI-1640 medium supplemented with 2 mM L-glutamine, 1.5 g/L sodium bicarbonate, 4.5 g/L glucose, 10 mM HEPES, 1 mM sodium pyruvate, 0.05% 2-mercaptoethanol and 10% FBS. Cells were grown under 5% CO2/95% air, 100% humidity at 37° C. and subcultured twice weekly at 1:5 (cells were cultured at a density range of 2×10^5 to 2×10^6 cells/mL) and harvested at 1×10^6 cells/mL. THP-1 cells express CCR1 and can be used in CCR1 binding and functional assays.
Monocytes were isolated from human buffy coats using the Miltenyi bead isolation system (Miltenyi, Auburn, Calif.). Briefly, following a Ficoll gradient separation to isolate peripheral blood mononuclear cells, cells were washed with PBS and the red blood cells lysed using standard procedures. Remaining cells were labeled with anti-CD14 antibodies coupled to magnetic beads (Miltenyi Biotech, Auburn, Calif.). Labeled cells were passed through AutoMACS (Miltenyi, Auburn, Calif.) and positive fraction collected. Monocytes express CCR1 and can be used in CCR1 binding and functional assays.
Chemotaxis assays were performed using 5 μm pore polycarbonate, polyvinylpyrrolidone-coated filters in 96-well chemotaxis chambers (Neuroprobe; Gaithersburg, Md.) using chemotaxis buffer (Hank's balanced salt solution (HBSS) and 1% FBS). CCR1 chemokine ligands (i.e., MIP-1α, CCL15/Leukotactin; R&D Systems; Minneapolis, Minn.) are use to evaluate compound mediated inhibition of CCR1 mediated migration. Other chemokines (i.e., SDF-1α; R&D Systems; Minneapolis, Minn.) are used as specificity controls. The lower chamber was loaded with 29 μl of chemokine (i.e., 0.1 nM CCL15/Leukotactin) and varying amounts of compound; the top chamber contained 100,000 THP-1 or monocyte cells in 20 μl. The chambers were incubated 1-2 hours at 37° C., and the number of cells in the lower chamber quantified either by direct cell counts in five high powered fields per well or by the CyQuant assay (Molecular Probes), a fluorescent dye method that measures nucleic acid content, and by measuring with a Spectrafluor Plus (Tecan). The computer program Prism from GraphPad, Inc. (San Diego, Calif.) was used to calculate IC50 values. IC50 values are those compound concentrations required to inhibit the number of cells responding to a CCR1 agonist by 50%.
With `Cc1cc(C(F)(F)F)nn1C(CC1CCOCC1)C(=O)N1CCCc2c1cnn2-c1ccc(F)cc1` (stereo not drawn), the IC50 (in general, the concentration needed to halve the response being measured) was < 1 µM.

With `O=C(Cn1nc(C(F)(F)F)c2c1CCOC2)N1CCCc2c1cnn2-c1ccc(F)cc1`, the IC50 is < 1 µM.

`Cc1c(Cl)c(S(C)(=O)=O)nn1CC(=O)N1CCCc2c1cnn2-c1ccc(F)cc1`: the IC50 is < 1 µM.

Consider `O=C(Cn1cc(C(F)(F)F)cn1)N1CCCc2c1cnn2-c1ccc(F)cc1`, for which the IC50 is < 1 µM.

As for `CC(C(=O)N1CCCc2c1cnn2-c1ccc(F)cc1)c1ccc(Cl)c(C(F)(F)F)c1` (stereo not drawn), the IC50 is < 1 µM.

As to `CC(C)(O)c1cnn(CC(=O)N2CCCc3c2cnn3-c2ccc(F)cc2)c1`, the IC50 lay in the range of 2.5 to 12.5 µM.

Consider `Cc1c(Cl)cnn1CC(=O)N1CCCc2c1cnn2-c1ccc(F)cc1`, for which the IC50 is < 1 µM.

For the compound `O=C(Cn1ccc(C(F)(F)F)n1)N1CCCc2c1cnn2-c1ccc(F)cc1`, the IC50 is < 1 µM.

Regarding `O=C(Cn1cc(Cl)c(C(F)(F)F)n1)N1CCCc2c1cnn2-c1ccc(F)cc1`, the IC50 was < 1 µM.

Take `Cc1c(Cl)c(C(F)F)nn1CC(=O)N1CCCc2c1cnn2-c1ccc(F)cc1`: the IC50 was < 1 µM.

On to `Cc1c(Cl)c(C(F)(F)F)nn1C(CO)C(=O)N1CCCc2c1cnn2-c1ccc(F)cc1` (stereo not drawn) [drawing 103], for which the IC50 is < 1 µM.

The test system of the next experiment is inflammatory cells recruited to the inflamed synovial fluid of the knee joints. The experiment is described as follows: Rabbit model of destructive joint inflammation (rabbit LPS study). The class given is in vivo, New Zealand rabbits. The following applies: intra-articular LPS 10 ng, dosed orally 2 hours before and 4 hours after LPS, lavage at sixteen hours. As for the experimental part: A rabbit LPS study was conducted essentially as described in Podolin, et al. J. Immunol. 169(11):6435-6444 (2002). Female New Zealand rabbits (approximately 2 kilograms) were treated intra-articularly in both knees with LPS (10 ng). The compound of interest, for example 1.016, (formulated in 1% methocel) or vehicle (1% methocel) was dosed orally at a 5 ml/kg dose volume at two times (2 hours before the intra-articular LPS injection and 4 hours after the intra-articular LPS injection). Sixteen hours after the LPS injection, knees were lavaged and cells counts were performed. Beneficial effects of treatment were determined by reduction in the number of inflammatory cells recruited to the inflamed synovial fluid of the knee joints.
As to `Cc1c(Cl)c(C(F)(F)F)nn1C(CO)C(=O)N1CCCc2c1cnn2-c1ccc(F)cc1` (stereo not drawn) [Example 1.016], the “reduction in the number of inflammatory cells recruited to the inflamed synovial fluid of the knee joints” value is listed as “significant reduction in recruited inflammatory cells”.
